Measurements published in patent US12329735B2, “Azelaic acid esters in the treatment of insulin resistance” (NEW FRONTIER LABS, LLC, priority 2016, dated 2025).

Columns and labels:
[1] = Oral glucose tolerance test in ethanol-induced insulin resistance state, human self-study; type: in vivo
[2] = Human clinical trial: OGTT in non-diabetic insulin resistant adult males at Day 1 and Day 21; type: in vivo; details: for Percent change: Day-1 vs. Day-21 average blood glucose: (Day-1 − Day-21)/Day-21 ×100%; for OGTT Blood Glucose Level, Day-21 Group Average: after 21 days 1 mg/kg oral once a day, 3 subjects
Protocol: A total of eight subjects were screened, out of which four subjects satisfied all the eligibility criteria. Three healthy male volunteers ranging between 18-50 years of age weighing between 80-120 kg were enrolled in the study. At screening, subjects were non-diabetic insulin resistant (NDIR) having a fasting plasma glucose of greater than 75 mg/dL and less than 126 mg/dL and have a compensatory hyperinsulinemia having a mean of two consecutive fasting insulin samples collected between 10 to 30 minutes apart of great than 12 μIU/mL. Subjects had no clinically significant illness that may affect glucose metabolism, insulin sensitivity or makes them otherwise unsuitable for inclusion in the study. Subjects had no history or ongoing significant abnormalities or diseases, in the areas, such as, endocrine, gastrointestinal, cardiovascular, hematological, renal, upper or lower respiratory, neoplasia. Subjects had no uncontrolled blood pressure of greater than 160/95 mmHg at screening. […] Subjects had not used antidiabetic or antihyperglycemic medications in the last 6 months. Subjects had not used tobacco or nicotine containing products in the last 3 months. Subjects were not mentally or legally incapacitated. Subjects had no history of significant psychiatric disorder (within the last 10 years) and had no significant emotional problems at the time of the study. All subjects were evaluable for safety and all blood collections for pharmacokinetic analysis were collected as scheduled. All studies were performed with institutional review board approval and patient consent. The Board was constituted and operated in accordance with the principles and requirements described in the US Code of Federal Regulations (21 CFR Part 56). The board was ICH compliant. This study was an open label test/retest study measuring the change from baseline of selected biomarkers and computational indices of insulin sensitivity of the adult male volunteers in response to multiple doses of diethyl azelate. The study population was restricted to male participants in order to control for the variability associated with the menstrual cycle on the metabolic parameters of interest (Sheu, Chen et al. 2003). Baseline parameters were assessed followed by retest assessments at three weeks (21-days) post-dose. Diethyl azelate (density of 0.973 g/mL at 25° C. or 973 mg/mL) was administered orally by needless syringes once a day at 1 mg/kg to each subject for 21 days starting at Day 1. The dose was calculated as described below, with standard rounding conventions applied to the nearest 0.01 mL: 1 mg/kg×Participant Weight (kg)×(1 mL/973 mg)=X mL to Dose Additional marketed pharmaceutical products were administered as part of the study procedures or as challenge agents associated with the Oral Glucose Tolerance (OGTT). These include 75 g CHO (carbohydrate) Glucola and small volumes of 0.9% Normal Saline administered intravenously secondary to blood collection. Subjects were evaluated with a baseline OGTT on Day 1 and a final OGTT on Day 21. Safety assessments were performed on each subject during the course of the study including clinical examination, vital signs recording, ECG recording, adverse event (AE) monitoring, and concomitant medication assessment. An Oral Glucose Tolerance Test (OGTT) was performed at baseline on Day 1 and Day 21. The OGTT was performed after a fast greater than eight hours and consisted of eight blood collections. Subjects were administrated a bottle of Glucola drink (containing 50% dextrose I 75 g dextrose in 150 mL solution; available as GlucoCrush™) over a course of five minutes, starting at T=0 (first sip of the Glucola). Two blood-draws occurred ˜30 minutes and just prior (˜0 minute) to administration of the Glucola. Post-meal blood collection occurred at 30, 60, 90, 120, and 180 minutes. Samples for glucose and exploratory PK and biomarker samples were collected at all timepoints associated with the OGTT. […]

[3] = Human clinical trial: safety and tolerability; type: in vivo
Protocol: To evaluate the safety and tolerability of diethyl azelate (immediate release form) when administered orally to insulin resistant adult male volunteers, and to evaluate the change from baseline of selected biomarkers and computational indices of dysmetabolism when diethyl azelate is administered orally to insulin resistant adult male volunteers.
A total of eight subjects were screened, out of which four subjects satisfied all the eligibility criteria. Three healthy male volunteers ranging between 18-50 years of age weighing between 80-120 kg were enrolled in the study. At screening, subjects were non-diabetic insulin resistant (NDIR) having a fasting plasma glucose of greater than 75 mg/dL and less than 126 mg/dL and have a compensatory hyperinsulinemia having a mean of two consecutive fasting insulin samples collected between 10 to 30 minutes apart of great than 12 μIU/mL. Subjects had no clinically significant illness that may affect glucose metabolism, insulin sensitivity or makes them otherwise unsuitable for inclusion in the study. Subjects had no history or ongoing significant abnormalities or diseases, in the areas, such as, endocrine, gastrointestinal, cardiovascular, hematological, renal, upper or lower respiratory, neoplasia. Subjects had no uncontrolled blood pressure of greater than 160/95 mmHg at screening. […] Subjects had not used antidiabetic or antihyperglycemic medications in the last 6 months. […]
Diethyl azelate (density of 0.973 g/mL at 25° C. or 973 mg/mL) was administered orally by needless syringes once a day at 1 mg/kg to each subject for 21 days starting at Day 1. The dose was calculated as described below, with standard rounding conventions applied to the nearest 0.01 mL: 1 mg/kg×Participant Weight (kg)×(1 mL/973 mg)=X mL to Dose
Additional marketed pharmaceutical products were administered as part of the study procedures or as challenge agents associated with the Oral Glucose Tolerance (OGTT). […] Subjects were evaluated with a baseline OGTT on Day 1 and a final OGTT on Day 21. […]

[4] = test system: PAMP receptors (Toll-Like Receptors) on dendritic cells; assay: PAMP receptor agonist-induced signaling in dendritic cells; type: cell-based; details: 0.5% DEA, 24 hours
Protocol: The azelates modulated broad-range signaling of pathogen-associated molecular patterns (PAMP) receptors: Toll-Like Receptors (TLRs) are a class of PAMP receptors. Various PAMP receptor agonists (ligands); nineteen discrete entities, were added to dendritic cells along with 0.5% diethyl azelate (DEA) and measured levels of 34 signaling molecules (ATP, cytokines, chemokines) produced by the cells after 24 hours. To assess if DEA affected PAMP receptor signaling, the ratios of the levels of these molecules were calculated in treated and untreated cells. If DEA had no effect, these ratios would be equal to 1. […] A similar effect of DEA was observed on the ratios of other signaling molecules.

[5] = test system: EpiDerm 3-D human skin tissue; assay: EpiDerm 3-D human skin tissue exposed to croton oil plus azelates, multiplex immunoassays of 47 markers; type: cell-based; details: croton oil + azelate, 24 hours; medium and tissue lysates
Protocol: EpiDerm 3-D human skin tissue (MatTek) was exposed to an irritant, croton oil+the azelates for 24 hours. Levels of 47 cytokines and other signaling molecules were measured in cultured media and tissue lysates using multiplex immunoassays. Relative % differences in levels of select markers in medium and tissues after treatment with croton oil plus azelates versus croton oil alone were graphed as heat maps displaying statistically significant/nearly significant differences and distinct patterns of marker modulation. The azelates also exerted chemoprotective activity against croton oil damage on microscopic examination.

[6] = oral 1 mg/kg once a day, 21 days, three subjects

CCOC(=O)CCCCCCCC(=O)OCC [diethyl azelate]
percentage decrease of glucose levels vs untreated control state (ethanol-induced insulin resistance) ([1]; fasting (t=0), p=0.02): 13.6% | change in blood glucose in induced insulin resistance state (OGTT) ([1]; human self-study, 50 ml ethanol, 1 mg/kg oral 8 hours prior to OGTT (75 g glucose), 0, 1, 2, 4 hours): significant decrease of glucose at the baseline (fasting) and highly significant (p<0.0001) at the peak postprandial time point at 2 hours | percentage decrease of glucose levels vs untreated control state (ethanol-induced insulin resistance) ([1]; t=1 hour, statistically not significant): 11.4% | percentage decrease of glucose levels vs untreated control state (ethanol-induced insulin resistance) ([1]; t=2 hours, p=6×10−6): 36.7% | increase in glucose level vs untreated control state (ethanol-induced insulin resistance) ([1]; t=4 hours, not statistically significant): 8.8% | Percent change: Day-1 vs. Day-21 average blood glucose ([2]; 0 min): 6.5% | OGTT Blood Glucose Level, Day-21 Group Average ([2]; 0 min): 94.5 mg/dL | Percent change: Day-1 vs. Day-21 average blood glucose ([2]; 30 min): 14.5% | OGTT Blood Glucose Level, Day-21 Group Average ([2]; 30 min): 148.0 mg/dL | Percent change: Day-1 vs. Day-21 average blood glucose ([2]; 60 min): 15.7% | OGTT Blood Glucose Level, Day-21 Group Average ([2]; 60 min): 142.3 mg/dL | Percent change: Day-1 vs. Day-21 average blood glucose ([2]; 90 min): 46.3% | OGTT Blood Glucose Level, Day-21 Group Average ([2]; 90 min): 105.8 mg/dL | Percent change: Day-1 vs. Day-21 average blood glucose ([2]; 120 min): 15.1% | OGTT Blood Glucose Level, Day-21 Group Average ([2]; 120 min): 99.2 mg/dL | Percent change: Day-1 vs. Day-21 average blood glucose ([2]; 180 min): 18.6% | OGTT Blood Glucose Level, Day-21 Group Average ([2]; 180 min): 71.2 mg/dL | insulin metabolism profile after treatment ([2]; all three subjects, after 21 days of treatment): normal healthy insulin metabolism profiles | average blood glucose levels after the 3-weeks treatment course ([2]; at T=30 mins and 60 mins, pre-treatment 164 to 170 mg/dl): below 150 mg/dl | Percent change: Day-1 vs. Day-21 average blood glucose ([2]; −5 min): 6.2% | OGTT Blood Glucose Level, Day-21 Group Average ([2]; −5 min): 94.0 mg/dL | Percent change: Day-1 vs. Day-21 average blood glucose ([2]; −30 min): 6.0% | OGTT Blood Glucose Level, Day-21 Group Average ([2]; −30 min): 94.1 mg/dL | adverse events observed [3, 6]: loose stools in one subject | drug-related changes in physical examinations, vital signs, or electrocardiograms (ECGs) [3, 6]: no clinically meaningful drug-related changes | tolerability ([3]; oral, three male subjects): well tolerated | signaling induced by TLR agonists (ATP ratio treated/untreated cells) [4]: decreased signaling induced by most TLR agonists | effect on signaling of PAMP receptors ([4]; 34 signaling molecules): affected signaling of all PAMP receptors but the effect was greater for the receptors localized on the cell surface than for these inside the cell | cytokine levels (IL-1 a, IL-6, IL-8, TNF-a) versus croton oil alone [5]: downregulated multiple cytokines relevant to T2D including IL-1 a, IL-6, IL-8, and TNF-a
